“And” between values parts separate entries of the source, which are not always exact repeats. Identical values can stand only once.
How the values were obtained:
[1] = system: LNCaP human prostate cancer cells; experiment: LNCaP human prostate cancer xenografts in male nude nu/nu mice; type: in vivo; details: after 4 weeks of treatment, compared with other groups (group 1 saline, group 5 BCG A-3)
Protocol: LNCaP human prostate cancer cells are implanted subcutaneously, as xenografts, in male nude nu/nu mice. The mice are divided into 5 groups of 10 mice. On day 0, group 1 mice receive saline, group 2 mice receive 3 base SEQ ID NO:8, group 3 mice receive 6 base GT SEQ ID NO:25, group 4 mice receive 6 base AG SEQ ID NO:45 and group 5 mice receive 45 base BCG A-3 SEQ ID NO:69. After 4 weeks of treatment, the mice are sacrificed and timor mass is determined.

[2] = system: MCF-7 human breast cancer cells; experiment: Cell cycle stage in MCF-7 cells (propidium iodide flow cytometry); type: cell-based; details: MCF-7, 5×10^5 cells/ml, 24 h
Protocol: Cell cycle stage was determined using a […]™ PLUS DNA commercial kit (Becton Dickinson). Briefly, nuclei from cells were obtained by dissolving the cell membrane in a nonionic detergent, eliminating the cell cytoskeleton and nuclear proteins with trypsin, digesting the cellular RNA with RNase and stabilizing the nuclear chromatin with spermine. Propidium iodide was added to the cell nuclei and their fluorescence was analyzed in a flow cytometer equipped with electronic doublet discrimination capability (FACSCalibur, Becton Dickinson, San Jose, Calif.). Accumulation of cells in G0/G1, early S (SE), mid S (SM), late S (SL) or G2/M phases of the cell cycle was analyzed using MODFIT LT software (Verity Software House Inc., Topsham, Mass.).
Exponentially growing Jurkat human leukemia T cells (Table 28) and MCF-7 human breast cancer cells (5×10^5 cells/ml) (Table 29) were incubated for 24 h with 2, 6, 15, 18, 27 and 45 base sequences containing A, C, G and T. The cells were collected and centrifuged and cell cycle stage was determined.

[3] = Melting temperature (Tm) of sequences; type: physicochemical
[4] = system: OVCAR-3 human ovarian cancer cells; experiment: Inhibition of OVCAR-3 cell proliferation (MTT); type: cell-based; details: 100 μg/ml, 48 h, 5×10^5 cells/ml
Protocol: Cells were seeded in 6 (1 ml/well), 24 (0.5 ml/well) or 96 (0.1 ml/well) well flat-bottom microplates and were maintained at 37° C. in a 5% CO2 atmosphere. Unless stated otherwise, 2.5×10^5 cells/ml were incubated with 0 μg/ml (control) and 100 μg/ml (treated) of 2 to 45 base sequences containing A, C, G and T for 48 h.
Cell proliferation was measured using dimethylthiazol-diphenyl-tetrazolium (MTT) reduction (Mosman et al. J. Immunol. Methods 65:55, 1983). MTT was measured at a wavelength of 570 nm using a multiplate spectrophotometer reader (ELX800, Bio-TEK Instruments Inc., Winooski, Vt.).
OVCAR-3 ovarian cancer cells are a p53 mutated, p21/waf-1/Cip deleted, metastatic human solid tumor model. OVCAR-3 cells (5×10^5 cells/ml) were incubated with 2, 6 and 18 base GT sequences and with a 6 base AGT sequence (Table 11).

[5] = system: Jurkat human leukemia T cells; experiment: Intracellular calcium (Fluo-3-AM fluorescence); type: cell-based; details: 24 h, 100 μg/ml
Protocol: Increases in intracellular calcium (Ca^2+)i are reported to be associated with apoptosis induction (Lam et al. Mol. Endocrinol. 7:686, 1993). (Ca^2+)i was followed using the fluorescent probe Fluo-3-AM (Cell Permaant, Molecular Probes, Inc., Eugene, Oreg.). An increase in Fluo-3-AM fluorescence is indicative of an increase in (Ca^2+)i.
Jurkat human leukemia T cells were incubated for 24 h with 6 base GT SEQ. NO:25. Cells were collected by centrifugation, suspended in PBS containing 1% FBS and loaded with 10 μM Fluo-3-AM for 1 h at 37° C. Cell fluorescence was measured at 488 nm excitation and 530 nm emission (FL1 detector). Data were analyzed on a FACSCALIBUR using the program CellQUEST (Becton Dickinson).

[6] = system: EL-4 murine T lymphoma cells; experiment: EL-4 murine T lymphoma in C57/BL6 mice; type: in vivo; details: after 4 weeks of treatment, compared with group 1 (saline)
In short: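 C57/BL6 mice bearing implanted EL-4 cells, 10 per group, dosed from day 0 with saline or one of several GT- or AG-containing oligonucleotides. Tumor mass determined at sacrifice after 4 weeks of treatment.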

[7] = system: caspase 7; experiment: Caspase 7 activation by Western blot; type: cell-based, human; details: Jurkat, 72 h, 100 μg/ml (FIG. 3B)
Protocol: Jurkat T cell leukemia cells were incubated for 72 h with 6 base GT SEQ ID NO:25. The cells were washed 3× with PBS, lysed with 10 mM HEPES, pH 7.5 containing 5 mM MgCl2, 1 mM dithiothreitol, 1.5 nM aprotinin, 10 mM leupeptin and 2.5 μm Na orthovanadate, and the protein content of the lysate was determined (Bradford J. Anal. Biochem. 72:248, 1976).
Activated caspase 7 and PARP cleavage were detected by Western blot analysis. Lysate was mixed with Laemmli buffer (Laemmli U. Nature […], 1970), shaken, and heated at 100° C. for 4 min. […] The separated proteins were electroblotted onto a PVDF membrane. Equal protein loading was monitored by Ponceau red staining of the membrane.
The membrane was blocked overnight at 4° C. with a buffer containing 1% Tris-buffered saline (2 mM Tris-HCl, 13.7 mM NaCl, pH 7.6, and 0.1% polyethylenesorbitan monolaurate (TWEEN 20) (TBST) +5% non-fat dry milk. The membrane was washed and was incubated for 1 h at RT with a mouse monoclonal IgG anti-caspase 7 antibody (Pharmingen) (diluted 1:1000 in TBST+1% BSA) or with a mouse monoclonal IgG anti-PARP antibody (diluted 1:1000 in TBST+1% BSA) (Pharmingen). IgG bound to caspase 7 or to PARP was detected with sheep anti-mouse IgG conjugated to horseradish peroxidase (diluted 1:1000 in TBST+5% non-fat dry milk) (Pharmingen). […]

For GGGTGG [SEQ ID NO:25], the tumor mass [1] was “less tumor mass than groups 1 and 5 mice”, the “% cells in phase: G0/G1” value [2] was 21.9% and the “% cells in phase: G2/M” value [2] was 17.4%. For the same sequence, the “% cells in phase: SE” value [2] was 27.6%, the “% cells in phase: SL” value [2] was 10.9% and the “% cells in phase: SM” value [2] was 22.2%. For the same sequence, the “Arrest (cell cycle)” value [2] was “End SM”, the “melting temperature (Tm)” value [3] was 2.5 °C and the “% INHIBITION of OVCAR-3 human ovarian cancer cell proliferation” value [4] was 15% and 14%. For the same sequence, the “increase in cell fluorescence (Fluo-3-AM), indicative of (Ca2+)i” value [5] was 88%, the tumor mass [6] was “less tumor mass than group 1 mice” and the “processing of inactive pro-caspase 7 to active caspase 7” value [7] was “induced processing of inactive pro-caspase 7 (30 kDa) to active caspase 7 (19-20 kDa)”.

Reference: patent publication US20070213291A1, “Therapeutically useful synthetic oligonucleotides” (priority 1999, published 2007)
